The record followed here is patent publication US8680065B2, “Oligonucleotides of human endogenous retrovirus 9 (ERV-9) long terminal repeat (LTR) and methods of use” (The United States of America, as represented by the …, priority 2008, dated 2014).

One data set concerns LNcaP cells. Put plainly: Cancer cell proliferation, oligonucleotide in combination with VP16, 48 hours. To be noted: oligonucleotide 15 μg/ml with VP16 30 ng/ml and 50 ng/ml. It is filed as cell-based, human. As for the experimental part: FIG. 10 is a graph showing proliferation of LNcaP cells treated with ERV-9 U3 sense or antisense oligonucleotide (SEQ ID NOs: 1 and 2, respectively), in combination with VP16. Cells (4×10^4) were treated with oligonucleotide (15 μg/ml) alone or in combination with the concentrations of VP16 shown for 48 hours.
(§1) To test the effect of treating cancer cells with the combination of ERV-9 U3 oligonucleotide and VP16, six different cancer cell lines were analyzed: HT1080, (FIG. 7); MDA-231 (FIG. 8); K562 (FIG. 9); LNcaP (FIG. 10); HepG2 (FIG. 11); and MCF-7 (FIG. 12). Cells (4×10^4) were treated with 15 μg/ml ERV-9 U3 sense (SEQ ID NO: 1) or antisense (SEQ ID NO: 2) oligonucleotide alone or in combination with VP16 at a concentration of 30 ng/ml or 50 ng/ml. After 48 hours, cell proliferation was assessed by direct cell counting. Cell proliferation levels were expressed relative to GFP oligonucleotide control in the absence of VP16.

For data set [1], the system named is K562 cells (a myelogenous leukemia cell line). Put plainly: Cancer cell proliferation, oligonucleotide in LIPOFECTAMINE, 48 hours, direct cell counting. To be noted: P<0.05. It is filed as cell-based, human. On the procedure: FIG. 3 is a graph showing the effect of sense and antisense ERV-9 U3 oligonucleotides (SEQ ID NOs: 1 and 2, respectively) on proliferation of K562 cells (a myelogenous leukemia cell line). Cells (4×10^4) were treated with ERV-9 U3 sense or antisense oligonucleotide formulated in LIPOFECTAMINE™ at the concentrations shown for 48 hours.
To test the effect of the sense and antisense ERV-9 U3 oligonucleotides on proliferation of cancer cells, six different cancer cell lines were selected for transfection studies: HT1080, fibrosarcoma cells (FIG. 1); MDA-231, breast cancer cells (FIG. 2); K562, myelogenous leukemia cells (FIG. 3); LNcaP, prostate cancer cells (FIG. 4); HepG2, hepatocellular carcinoma cells (FIG. 5); and MCF-7, breast cancer cells (FIG. 6). Cells (4×10^4) were treated with ERV-9 U3 sense or antisense oligonucleotide formulated in LIPOFECTAMINE™ at an oligonucleotide concentration of 10, 20 or 30 μg/ml for 48 hours. Green fluorescent protein (GFP) sense oligonucleotide ([…]; SEQ ID NO: 3) was used as a control to measure the non-specific cytotoxicity of phosphorothioate-based oligonucleotides. Antisense oligonucleotides specific for Bcl-2 (G3139; TCTCCCAGCGTGCGCCAT; SEQ ID NO: 4), telomerase (GRN163; TAGGGTTAGACAA; SEQ ID NO: 5), and MDM2 ([…]; SEQ ID NO: 6) were also evaluated. […] After 48 hours of oligonucleotide treatment, cell proliferation was assessed by direct cell counting. Cell proliferation levels were expressed relative to cells transfected with 10 μg/ml GFP control oligonucleotide.

The test system of the next data set is HT1080 cells. As to the kind of experiment: Cancer cell proliferation, oligonucleotide in combination with VP16, 48 hours. The following applies: oligonucleotide 15 μg/ml with VP16 30 ng/ml and 50 ng/ml, P<0.05. It is filed as cell-based, human. As for the experimental part: FIG. 7 is a graph showing proliferation of HT1080 cells treated with ERV-9 U3 sense or antisense oligonucleotide (SEQ ID NOs: 1 and 2, respectively), in combination with VP16 (also known as etoposide). Cells (4×10^4) were treated with oligonucleotide (15 μg/ml) alone or in combination with the concentrations of VP16 shown for 48 hours. Cell proliferation levels were expressed relative to the percentage of GFP oligonucleotide control in the absence of VP16.
as §1

The subject of another data set is HepG2 cells. The data set is described as above. It is filed as cell-based, human. The following applies: oligonucleotide 15 μg/ml with VP16 30 ng/ml and 50 ng/ml, P<0.05. On the procedure:
FIG. 11 is a graph showing proliferation of HepG2 cells treated with ERV-9 U3 sense or antisense oligonucleotide (SEQ ID NOs: 1 and 2, respectively), in combination with VP16. Cells (4×10^4) were treated with oligonucleotide (15 μg/ml) alone or in combination with the concentrations of VP16 shown for 48 hours.
as §1

Data set [2] relates to human primary cells (keratinocytes, lymphocytes, monocytes). As to the kind of experiment: Proliferation of normal human primary cells, Example 3, summary. It is filed as cell-based. To be noted: 20 μg/ml, 48 hours. On the procedure:
(§2) To determine whether the inhibitory effect of ERV-9 U3 oligonucleotides is specific to cancer cells, human primary keratinocytes (FIG. 13), lymphocytes (FIG. 14), or monocytes (FIG. 15) were treated with ERV-9 U3 sense or antisense oligonucleotide and cell proliferation was evaluated. Cells (4×10^4) were transfected with ERV-9 U3 sense or antisense oligonucleotide (SEQ ID NOs: 1 and 2, respectively) formulated in LIPOFECTAMINE™ at a concentration of 20 μg/ml. GFP oligonucleotide was used as non-specific phosphorothioate oligonucleotide control. After 48 hours, cell proliferation was assessed by direct cell counting. Cell proliferation levels were expressed relative to GFP control.

Data set [3] concerns human primary keratinocytes. Put plainly: Proliferation of normal human primary cells, 48 hours. It is filed as cell-based. The following applies: 20 μg/ml, P>0.05. As for the experimental part:
FIG. 13 is a graph showing the effect of ERV-9 U3 sense and antisense oligonucleotides (SEQ ID NOs: 1 and 2, respectively) on human primary keratinocytes. Cells (4×10^4) were transfected with ERV-9 U3 sense or antisense oligonucleotide formulated in LIPOFECTAMINE™ at a concentration of 20 μg/ml for 48 hours. GFP oligonucleotide was used as non-specific phosphorothioate oligonucleotide control.
as §2

Data set [4] relates to HepG2 cells (a hepatocellular carcinoma cell line). As to the kind of experiment: Cancer cell proliferation, oligonucleotide in LIPOFECTAMINE, 48 hours, direct cell counting. It is filed as cell-based, human. To be noted: oligonucleotide 10, 20 or 30 μg/ml, P<0.05. On the procedure: FIG. 5 is a graph showing the effect of sense and antisense ERV-9 U3 oligonucleotides (SEQ ID NOs: 1 and 2, respectively) on proliferation of HepG2 cells (a hepatocellular carcinoma cell line). Cells (4×10^4) were treated with ERV-9 U3 sense or antisense oligonucleotide formulated in LIPOFECTAMINE™ at the concentrations shown for 48 hours.
To test the effect of the sense and antisense ERV-9 U3 oligonucleotides on proliferation of cancer cells, six different cancer cell lines were selected for transfection studies: HT1080, fibrosarcoma cells (FIG. 1); MDA-231, breast cancer cells (FIG. 2); K562, myelogenous leukemia cells (FIG. 3); LNcaP, prostate cancer cells (FIG. 4); HepG2, hepatocellular carcinoma cells (FIG. 5); and MCF-7, breast cancer cells (FIG. 6). Cells (4×10^4) were treated with ERV-9 U3 sense or antisense oligonucleotide formulated in LIPOFECTAMINE™ at an oligonucleotide concentration of 10, 20 or 30 μg/ml for 48 hours. […] Antisense oligonucleotides specific for Bcl-2 (G3139; TCTCCCAGCGTGCGCCAT; SEQ ID NO: 4), telomerase (GRN163; TAGGGTTAGACAA; SEQ ID NO: 5), and MDM2 ([…]; SEQ ID NO: 6) were also evaluated. […] After 48 hours of oligonucleotide treatment, cell proliferation was assessed by direct cell counting. […]

The subject of the next data set is MDA-231 cells. Put plainly: Cancer cell proliferation, oligonucleotide in combination with VP16, 48 hours. It is filed as cell-based, human. To be noted: oligonucleotide 15 μg/ml with VP16 30 ng/ml and 50 ng/ml, P<0.05.
The subject of another data set is human primary monocytes. As to the kind of experiment: Proliferation of normal human primary cells, 48 hours. To be noted: 20 μg/ml, P>0.05. It is filed as cell-based. On the procedure: FIG. 15 is a graph showing the effect of ERV-9 U3 sense and antisense oligonucleotides (SEQ ID NOs: 1 and 2, respectively) on human primary monocytes. Cells (4×10^4) were transfected with ERV-9 U3 sense or antisense oligonucleotide formulated in LIPOFECTAMINE™ at a concentration of 20 μg/ml for 48 hours.
as §2

[5] abbreviates: oligonucleotide 10 μg/ml and 20 μg/ml.

As for “U3AS: ERV-9 LTR U3 antisense oligonucleotide CTGATTGGTGTGTTTACAAACCTTGAG, phosphorothioate internucleoside linkages at each position (all phosphorothioate, sugars by position and methylation of C not given here) [Oligo U3AS]”, the “cell proliferation relative to GFP oligonucleotide control” value is “inhibited cell proliferation better than GFP oligonucleotide” in the data set with LNcaP cells; “inhibited cell proliferation better than GFP control and G3139, GRN163 and MDM2 antisense oligonucleotides” in the data set with HT1080 cells; “inhibited cell proliferation better than GFP control and G3139, GRN163 and MDM2 antisense oligonucleotides” in the data set on HepG2 cells; “inhibited cell proliferation better than GFP control and G3139, GRN163 and MDM2 antisense oligonucleotides” in the data set with MDA-231 cells. Also, the “cell proliferation relative to GFP oligonucleotide” value was “inhibited cell proliferation better than GFP control oligonucleotide” in data set [1] (setting [5]); “inhibited proliferation better than GFP control and G3139, GRN163 and MDM2 antisense oligonucleotides” in [1] (oligonucleotide 30 μg/ml); “inhibited cell proliferation better than GFP control and G3139, GRN163 and MDM2 antisense oligonucleotides at all three concentration levels” in [4]. In addition, the “cell proliferation of human primary cells relative to control GFP oligonucleotide” value in data set [2] was “neither U3 sense nor antisense oligonucleotides had an effect on the proliferation of human primary cells”; in data set [2] (listed as ERV-9 U3 antisense oligonucleotide), “did not significantly alter cell proliferation of human primary cells, relative to control GFP oligonucleotide”. For the same substance, the “cell proliferation relative to control GFP oligonucleotide” value (in [3]; in the data set with human primary monocytes) was “did not inhibit cell proliferation relative to control GFP oligonucleotide” in each case.

With “U3S: ERV-9 LTR U3 sense oligonucleotide CTCAAGGTTTGTAAACACACCAATCAG, phosphorothioate internucleoside linkages at each position (all phosphorothioate, sugars by position and methylation of C not given here) [Oligo U3S]”, the “cell proliferation relative to GFP oligonucleotide control” value in the data set on LNcaP cells is “inhibited cell proliferation better than GFP oligonucleotide”; with HT1080 cells it was “inhibited cell proliferation better than GFP control and G3139, GRN163 and MDM2 antisense oligonucleotides”; in the data set on HepG2 cells it was “inhibited cell proliferation better than GFP control and G3139, GRN163 and MDM2 antisense oligonucleotides”; in the data set with MDA-231 cells, “inhibited cell proliferation better than GFP oligonucleotide”. Besides, the “cell proliferation relative to GFP oligonucleotide” value is “inhibited cell proliferation better than GFP control oligonucleotide” in data set [1] (setting [5]); “inhibited proliferation better than GFP control and G3139, GRN163 and MDM2 antisense oligonucleotides” in data set [1] (oligonucleotide 30 μg/ml); “inhibited cell proliferation better than GFP control and G3139, GRN163 and MDM2 antisense oligonucleotides at all three concentration levels” in data set [4]. The “cell proliferation of human primary cells relative to control GFP oligonucleotide” value is “neither U3 sense nor antisense oligonucleotides had an effect on the proliferation of human primary cells” in data set [2] and “did not significantly alter cell proliferation of human primary cells, relative to control GFP oligonucleotide” in data set [2] (listed as ERV-9 U3 sense oligonucleotide). The “cell proliferation relative to control GFP oligonucleotide” value (in data set [3]; in the data set with human primary monocytes) was “did not inhibit cell proliferation relative to control GFP oligonucleotide” in each case.
